Data reported in patent publication US10239869B2, “Sulfonamide compounds as voltage-gated sodium channel modulators” (LUPIN LIMITED, priority 2015, dated 2019).
Where two headings read alike, the source gives them in different places.

Legend:
Nav 1.5 = Nav 1.5 (Homo sapiens (Human), UniProt Q14524); assay: Inhibition of sodium channels, Red Membrane Potential Dye FLIPR assay, veratridine depolarization; format: cell-based; settings: HEK-293 cells overexpressing the channel; for inhibition at 10 µM: HEK-293 cells overexpressing Nav 1.5
Nav 1.7 = Nav 1.7 (Homo sapiens (Human), UniProt Q15858); assay: as above; format: cell-based; settings: HEK-293 cells overexpressing the channel; read-out: Nav1.7 IC50
[1] = read-out: Nav1.5 IC50 (bound given in μM)

Nav 1.7, sequence (Q15858 whole entry): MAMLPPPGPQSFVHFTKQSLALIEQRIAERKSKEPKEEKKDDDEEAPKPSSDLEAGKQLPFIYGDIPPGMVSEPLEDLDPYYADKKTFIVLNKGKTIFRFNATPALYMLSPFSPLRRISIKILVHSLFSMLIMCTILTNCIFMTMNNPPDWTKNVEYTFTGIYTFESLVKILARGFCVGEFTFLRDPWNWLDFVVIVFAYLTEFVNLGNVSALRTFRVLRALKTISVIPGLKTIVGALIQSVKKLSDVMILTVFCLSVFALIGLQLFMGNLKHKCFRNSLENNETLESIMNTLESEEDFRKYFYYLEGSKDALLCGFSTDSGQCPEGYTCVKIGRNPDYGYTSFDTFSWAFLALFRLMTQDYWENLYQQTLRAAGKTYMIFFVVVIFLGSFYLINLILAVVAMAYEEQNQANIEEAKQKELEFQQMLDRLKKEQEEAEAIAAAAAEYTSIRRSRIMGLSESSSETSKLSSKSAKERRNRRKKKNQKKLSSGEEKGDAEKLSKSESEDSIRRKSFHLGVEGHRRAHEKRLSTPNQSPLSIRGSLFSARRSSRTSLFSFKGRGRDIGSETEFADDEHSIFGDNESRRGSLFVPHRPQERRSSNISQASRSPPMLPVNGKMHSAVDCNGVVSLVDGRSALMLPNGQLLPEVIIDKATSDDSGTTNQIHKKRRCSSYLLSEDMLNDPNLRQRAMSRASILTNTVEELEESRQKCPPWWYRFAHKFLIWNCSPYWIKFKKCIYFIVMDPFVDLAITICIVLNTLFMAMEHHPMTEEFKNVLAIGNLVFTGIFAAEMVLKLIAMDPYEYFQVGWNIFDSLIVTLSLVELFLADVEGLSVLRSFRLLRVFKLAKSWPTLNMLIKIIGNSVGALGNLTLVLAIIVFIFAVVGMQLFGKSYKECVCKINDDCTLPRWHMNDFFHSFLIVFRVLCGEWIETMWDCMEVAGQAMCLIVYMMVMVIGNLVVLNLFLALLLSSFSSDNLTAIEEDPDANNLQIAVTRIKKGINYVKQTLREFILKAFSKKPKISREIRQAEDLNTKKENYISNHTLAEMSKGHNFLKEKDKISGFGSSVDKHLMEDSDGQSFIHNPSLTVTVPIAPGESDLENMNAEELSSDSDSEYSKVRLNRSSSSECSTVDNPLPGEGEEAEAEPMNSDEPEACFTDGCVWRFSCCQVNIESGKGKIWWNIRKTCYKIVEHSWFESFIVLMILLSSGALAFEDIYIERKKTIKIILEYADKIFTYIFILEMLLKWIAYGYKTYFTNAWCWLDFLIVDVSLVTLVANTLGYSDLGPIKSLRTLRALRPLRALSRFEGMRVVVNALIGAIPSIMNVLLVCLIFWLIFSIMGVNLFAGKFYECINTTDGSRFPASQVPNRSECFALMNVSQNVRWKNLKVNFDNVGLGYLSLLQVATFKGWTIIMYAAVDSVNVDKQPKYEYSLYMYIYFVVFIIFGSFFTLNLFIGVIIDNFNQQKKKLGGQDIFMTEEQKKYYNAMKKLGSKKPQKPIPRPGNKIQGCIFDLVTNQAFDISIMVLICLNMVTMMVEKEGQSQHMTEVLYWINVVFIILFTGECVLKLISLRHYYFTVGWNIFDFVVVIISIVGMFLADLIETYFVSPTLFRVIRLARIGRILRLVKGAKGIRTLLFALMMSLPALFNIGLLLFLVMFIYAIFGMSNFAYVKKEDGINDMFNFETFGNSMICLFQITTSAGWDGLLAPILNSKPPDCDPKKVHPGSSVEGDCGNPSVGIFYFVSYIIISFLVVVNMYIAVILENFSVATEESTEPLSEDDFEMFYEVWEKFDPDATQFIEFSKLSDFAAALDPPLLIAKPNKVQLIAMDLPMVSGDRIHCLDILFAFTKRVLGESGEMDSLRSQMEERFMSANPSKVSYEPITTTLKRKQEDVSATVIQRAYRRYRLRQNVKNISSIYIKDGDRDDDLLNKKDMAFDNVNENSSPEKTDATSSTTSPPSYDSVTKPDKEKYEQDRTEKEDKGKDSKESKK
Nav 1.5, sequence (Q14524 whole entry): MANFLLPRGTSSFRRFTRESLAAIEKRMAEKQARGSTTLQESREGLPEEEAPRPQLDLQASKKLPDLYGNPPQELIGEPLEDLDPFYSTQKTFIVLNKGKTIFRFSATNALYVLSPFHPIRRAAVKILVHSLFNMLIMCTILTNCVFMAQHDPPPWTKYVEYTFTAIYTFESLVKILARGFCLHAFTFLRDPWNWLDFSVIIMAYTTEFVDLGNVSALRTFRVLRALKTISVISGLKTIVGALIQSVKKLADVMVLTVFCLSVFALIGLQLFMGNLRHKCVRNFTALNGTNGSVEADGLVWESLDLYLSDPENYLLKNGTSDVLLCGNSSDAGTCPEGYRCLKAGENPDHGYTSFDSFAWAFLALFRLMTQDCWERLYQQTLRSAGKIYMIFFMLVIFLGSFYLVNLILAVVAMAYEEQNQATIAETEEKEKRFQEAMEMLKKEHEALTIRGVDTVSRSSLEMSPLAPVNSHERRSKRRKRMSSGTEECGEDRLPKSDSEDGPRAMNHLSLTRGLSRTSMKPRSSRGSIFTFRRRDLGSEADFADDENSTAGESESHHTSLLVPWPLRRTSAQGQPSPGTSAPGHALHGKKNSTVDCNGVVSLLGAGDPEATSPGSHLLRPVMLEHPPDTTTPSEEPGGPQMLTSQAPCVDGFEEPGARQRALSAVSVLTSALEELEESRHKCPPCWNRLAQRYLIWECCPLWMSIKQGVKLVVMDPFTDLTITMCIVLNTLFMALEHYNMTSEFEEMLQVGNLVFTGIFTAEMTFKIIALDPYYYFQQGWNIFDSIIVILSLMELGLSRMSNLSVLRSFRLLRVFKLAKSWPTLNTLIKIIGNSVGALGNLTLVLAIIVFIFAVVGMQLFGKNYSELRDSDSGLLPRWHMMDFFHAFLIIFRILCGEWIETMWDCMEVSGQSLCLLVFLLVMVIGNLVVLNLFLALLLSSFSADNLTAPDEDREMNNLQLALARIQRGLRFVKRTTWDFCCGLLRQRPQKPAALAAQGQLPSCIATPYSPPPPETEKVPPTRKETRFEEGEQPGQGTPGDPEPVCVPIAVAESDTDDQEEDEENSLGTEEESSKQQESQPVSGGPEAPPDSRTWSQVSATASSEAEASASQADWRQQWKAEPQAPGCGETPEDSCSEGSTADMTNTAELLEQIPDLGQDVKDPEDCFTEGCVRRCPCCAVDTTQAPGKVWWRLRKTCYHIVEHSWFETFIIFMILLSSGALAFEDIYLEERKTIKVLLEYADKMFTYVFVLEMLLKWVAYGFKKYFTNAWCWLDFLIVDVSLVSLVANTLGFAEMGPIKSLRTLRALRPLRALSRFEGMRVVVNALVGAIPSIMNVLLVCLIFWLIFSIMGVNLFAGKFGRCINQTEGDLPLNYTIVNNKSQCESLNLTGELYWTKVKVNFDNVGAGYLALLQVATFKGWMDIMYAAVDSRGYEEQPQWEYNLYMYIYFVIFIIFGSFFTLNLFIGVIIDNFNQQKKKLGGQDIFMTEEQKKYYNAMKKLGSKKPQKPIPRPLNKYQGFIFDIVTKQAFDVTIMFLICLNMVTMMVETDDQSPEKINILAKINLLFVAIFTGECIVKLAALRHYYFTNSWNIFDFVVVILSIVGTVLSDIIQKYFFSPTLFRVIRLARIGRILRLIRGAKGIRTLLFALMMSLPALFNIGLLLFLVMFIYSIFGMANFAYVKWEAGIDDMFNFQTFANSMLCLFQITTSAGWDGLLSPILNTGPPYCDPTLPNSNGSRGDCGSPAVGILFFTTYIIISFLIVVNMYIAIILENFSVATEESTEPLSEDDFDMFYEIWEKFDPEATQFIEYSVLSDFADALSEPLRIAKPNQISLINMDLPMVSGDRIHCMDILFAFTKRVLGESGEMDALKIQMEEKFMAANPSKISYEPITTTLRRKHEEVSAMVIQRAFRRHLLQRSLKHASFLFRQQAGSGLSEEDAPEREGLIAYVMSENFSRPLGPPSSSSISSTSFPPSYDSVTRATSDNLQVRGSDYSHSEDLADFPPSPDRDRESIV

Row | IC50 (Nav 1.7) | SMILES | IC50 (Nav 1.5; [1]) | other results
1 | 0.004 µM | O=S(=O)(Nc1ncccn1)c1ccc2c(c1)OCC[C@@H]2c1ccc(C(F)(F)F)cc1-c1nccs1 (racemic) [Example 93, (R/S)—N-(pyrimidin-2-yl)-4-(2-(thiazol-2-yl)-4-(trifluoromethyl)phenyl)chroman-7-sulfonamide] |  | inhibition at 10 µM (Nav 1.5): 56%
2 | 0.003 µM | O=S(=O)(Nc1ccncn1)c1ccc2c(c1)OCC[C@@H]2c1ccc(C(F)(F)F)cc1-c1nccs1 (racemic) [Example 94, (R/S)—N-(pyrimidin-4-yl)-4-(2-(thiazol-2-yl)-4-(trifluoromethyl)phenyl)chroman-7-sulfonamide] |  | inhibition at 10 µM (Nav 1.5): 51%
3 | 0.011 µM | O=S(=O)(Nc1cccnn1)c1ccc2c(c1)OCC[C@@H]2c1ccc(C(F)(F)F)cc1-c1nccs1 (racemic) [Example 95, (R/S)—N-(pyridazin-3-yl)-4-(2-(thiazol-2-yl)-4-(trifluoromethyl)phenyl)chroman-7-sulfonamide] |  | inhibition at 10 µM (Nav 1.5): 74%
4 | 0.008 µM | O=S(=O)(Nc1cccc(F)n1)c1ccc2c(c1)OCC[C@@H]2c1ccc(C(F)(F)F)cc1-c1nccs1 (racemic) [Example 96, (R/S)—N-(6-fluoropyridin-2-yl)-4-(2-(thiazol-2-yl)-4-(trifluoromethyl)phenyl)chroman-7-sulfonamide] |  | inhibition at 10 µM (Nav 1.5): 70%
5 | 0.01 µM | CCOc1ccc(-c2cc(C(F)(F)F)ccc2[C@H]2CCOc3cc(S(=O)(=O)Nc4ncccn4)ccc32)cn1 (racemic) [Example 103, (R/S)-4-(2-(6-ethoxypyridin-3-yl)-4-(trifluoromethyl)phenyl)-N-(pyrimidin-2-yl)chroman-7-sulfonamide] |  | IC50 (Nav 1.5; read-out: Nav1.5 IC50): 0.932 µM
6 | 0.184 µM | O=S(=O)(Nc1ncccn1)c1ccc2c(c1)OCC[C@@H]2c1ccc(C(F)(F)F)cc1Cl (racemic) [Example 104, (S/R)-4-(2-Chloro-4-(trifluoromethyl)phenyl)-N-(pyrimidin-2-yl)chroman-7-sulfonamide] | > 10 µM | 
7 | 1.51 µM | O=S(=O)(Nc1ncc(F)cn1)c1ccc2c(c1)OCC[C@@H]2c1ccc(C(F)(F)F)cc1Cl (racemic) [Example 105, (S/R)-4-(2-Chloro-4-(trifluoromethyl)phenyl)-N-(5-fluoropyrimidin-2-yl)chroman-7-sulfonamide] | > 10 µM | 
8 | 0.147 µM | O=S(=O)(Nc1ccncn1)c1ccc2c(c1)OCC[C@@H]2c1ccc(C(F)(F)F)cc1Cl (racemic) [Example 106, (S/R)-4-(2-Chloro-4-(trifluoromethyl)phenyl)-N-(pyrimidin-4-yl)chroman-7-sulfonamide] | > 10 µM | 
9 | 0.229 µM | O=S(=O)(Nc1cccnn1)c1ccc2c(c1)OCC[C@@H]2c1ccc(C(F)(F)F)cc1Cl (racemic) [Example 107, (S/R)-4-(2-Chloro-4-(trifluoromethyl)phenyl)-N-(pyridazin-3-yl)chroman-7-sulfonamide] | > 10 µM | 
10 | 0.057 µM | O=S(=O)(Nc1cccc(F)n1)c1ccc2c(c1)OCC[C@@H]2c1ccc(C(F)(F)F)cc1Cl (racemic) [Example 108, (S/R)-4-(2-chloro-4-(trifluoromethyl)phenyl)-N-(6-fluoropyridin-2-yl)chroman-7-sulfonamide] |  | IC50 (Nav 1.5; read-out: Nav1.5 IC50): 2.18 µM
11 |  | O=S(=O)(Nc1ncc(F)cn1)c1ccc2c(c1)OCC[C@@H]2c1ccc(C(F)(F)F)cc1-c1ccc(F)cc1 [Example 46, (S&R)-4-(4′-Fluoro-5-(trifluoromethyl)-[1,1′-biphenyl]-2-yl)-N-(5-fluoropyrimidin-2-yl) chromane-7-sulfonamide] | > 10 µM | 
12 |  | O=S(=O)(Nc1ccncn1)c1ccc2c(c1)OCC[C@@H]2c1ccc(C(F)(F)F)cc1-c1ccc(F)cc1 [Example 48, (S&R)-4-(4′-Fluoro-5-(trifluoromethyl)-[1,1′-biphenyl]-2-yl)-N-(pyrimidin-4-yl)chromane-7-sulfonamide] | > 10 µM | 
13 |  | O=S(=O)(Nc1cccc(F)n1)c1ccc2c(c1)OCC[C@H]2c1ccc(C(F)(F)F)cc1-c1ccc(F)cc1 [Example 49, (S&R)-4-(4′-Fluoro-5-(trifluoromethyl)-[, 1′-biphenyl]-2-yl)-N-(6-fluoropyridin-2-yl) chromane-7-sulfonamide] | > 10 µM | 
14 |  | O=S(=O)(Nc1cccc(F)n1)c1ccc2c(c1)OCC[C@@H]2c1ccc(C(F)(F)F)cc1-c1ccc(F)cc1 [Example 50, (S&R)-4-(4′-Fluoro-5-(trifluoromethyl)-[, 1′-biphenyl]-2-yl)-N-(6-fluoropyridin-2-yl) chromane-7-sulfonamide] |  | Nav1.5 % inhibition @ 10 μM (Nav 1.5): 38%
15 |  | O=S(=O)(Nc1ncccn1)c1ccc2c(c1)OCC[C@H]2c1ccc(C(F)(F)F)cc1-n1ccnn1 [Example 51, (S&R)-4-(2-(1H-1,2,3-Triazol-1-yl)-4-(trifluoromethyl)phenyl)-N-(pyrimidin-2-yl)chromane-7-sulfonamide] | > 10 µM | 
16 |  | O=S(=O)(Nc1ncccn1)c1ccc2c(c1)OCC[C@@H]2c1ccc(C(F)(F)F)cc1-n1ccnn1 [Example 52, (S&R)-4-(2-(1H-1,2,3-Triazol-1-yl)-4-(trifluoromethyl)phenyl)-N-(pyrimidin-2-yl)chromane-7-sulfonamide] | > 10 µM | 
17 |  | O=S(=O)(Nc1ncc(F)cn1)c1ccc2c(c1)OCC[C@H]2c1ccc(C(F)(F)F)cc1-n1ccnn1 [Example 55, (S&R)-4-(2-(1H-1,2,3-Triazol-1-yl)-4-(trifluoromethyl)phenyl)-N-(5-fluoropyrimidin-2-yl) chromane-7-sulfonamide] | > 10 µM | 
18 |  | O=S(=O)(Nc1ncc(F)cn1)c1ccc2c(c1)OCC[C@@H]2c1ccc(C(F)(F)F)cc1-n1ccnn1 [Example 56, (S&R)-4-(2-(1H-1,2,3-Triazol-1-yl)-4-(trifluoromethyl)phenyl)-N-(5-fluoropyrimidin-2-yl) chromane-7-sulfonamide] | > 10 µM | 
19 |  | O=S(=O)(Nc1ccncn1)c1ccc2c(c1)OCC[C@H]2c1ccc(C(F)(F)F)cc1-n1ccnn1 [Example 57, (S&R)-4-(2-(1H-1,2,3-Triazol-1-yl)-4-(trifluoromethyl)phenyl)-N-(pyrimidin-4-yl)chromane-7-sulfonamide] | > 10 µM | 
20 |  | O=S(=O)(Nc1ccncn1)c1ccc2c(c1)OCC[C@@H]2c1ccc(C(F)(F)F)cc1-n1ccnn1 [Example 58, (S&R)-4-(2-(1H-1,2,3-Triazol-1-yl)-4-(trifluoromethyl)phenyl)-N-(pyrimidin-4-yl)chromane-7-sulfonamide] | > 10 µM | 
21 |  | O=S(=O)(Nc1cccc(F)n1)c1ccc2c(c1)OCC[C@H]2c1ccc(C(F)(F)F)cc1-n1ccnn1 [Example 59, (S&R)-4-(2-(1H-1,2,3-Triazol-1-yl)-4-(trifluoromethyl)phenyl)-N-(6-fluoropyridin-2-yl) chromane-7-sulfonamide] | > 10 µM | 
22 |  | O=S(=O)(Nc1cccc(F)n1)c1ccc2c(c1)OCC[C@@H]2c1ccc(C(F)(F)F)cc1-n1ccnn1 [Example 60, (S&R)-4-(2-(1H-1,2,3-Triazol-1-yl)-4-(trifluoromethyl)phenyl)-N-(6-fluoropyridin-2-yl) chromane-7-sulfonamide] | > 10 µM | 
23 |  | O=S(=O)(Nc1ncccn1)c1ccc2c(c1)OCC[C@H]2c1ccc(C(F)(F)F)cc1N1CCOCC1 [Example 118, (S&R)-4-(2-morpholino-4-(trifluoromethyl)phenyl)-N-(pyrimidin-2-yl)chroman-7-sulfonamide] | > 10 µM | 
24 |  | O=S(=O)(Nc1ncccn1)c1ccc2c(c1)OCC[C@@H]2c1ccc(C(F)(F)F)cc1N1CCOCC1 [Example 119, (S&R)-4-(2-morpholino-4-(trifluoromethyl)phenyl)-N-(pyrimidin-2-yl)chroman-7-sulfonamide] |  | Nav1.5 % inhibition @ 10 μM (Nav 1.5): 30%
25 |  | O=S(=O)(Nc1ncccn1)c1ccc2c(c1)OCC[C@H]2c1ccc(C(F)(F)F)cc1-c1ccc(F)cn1 [Example-193, (S&R)-4-(2-(5-fluoropyridin-2-yl)-4-(trifluoromethyl)phenyl)-N-(pyrimidin-2-yl)chroman-7-sulfonamide] | > 10 µM | 
26 |  | O=S(=O)(Nc1ncccn1)c1ccc2c(c1)OCC[C@@H]2c1ccc(C(F)(F)F)cc1-c1ccc(F)cn1 [Example-194, (S&R)-4-(2-(5-fluoropyridin-2-yl)-4-(trifluoromethyl)phenyl)-N-(pyrimidin-2-yl)chroman-7-sulfonamide] |  | Nav1.5 % inhibition @ 10 μM (Nav 1.5): 65%
27 |  | Cc1ccc(-c2cc(C(F)(F)F)ccc2[C@@H]2CCOc3cc(S(=O)(=O)Nc4ncccn4)ccc32)cn1 [Example-201, (S)-4-(2-(6-methylpyridin-3-yl)-4-(trifluoromethyl)phenyl)-N-(pyrimidin-2-yl)chromane-7-sulfonamide] | > 10 µM | 
28 |  | Cc1ccc(-c2cc(C(F)(F)F)ccc2[C@H]2CCOc3cc(S(=O)(=O)Nc4ncccn4)ccc32)cn1 [Example-202, (R)-4-(2-(6-methylpyridin-3-yl)-4-(trifluoromethyl)phenyl)-N-(pyrimidin-2-yl)chroman-7-sulfonamide] | > 10 µM | 
29 |  | O=S1(=O)CCN(c2cc(C(F)(F)F)ccc2[C@H]2CCOc3cc(S(=O)(=O)Nc4ncccn4)ccc32)CC1 [Example-233, (S&R)-4-(2-(1,1-dioxidothiomorpholino)-4-(trifluoromethyl)phenyl)-N-(pyrimidin-2-yl)chroman-7-sulfonamide] | > 10 µM | 

Row | SMILES | IC50 (Nav 1.7) | IC50 (Nav 1.5; [1]) | other results
30 | Cc1cccc(NS(=O)(=O)c2ccc3c(c2)OCC[C@@H]3c2ccc(C(F)(F)F)cc2-c2ccnn2C)n1 [Example 20, (S&R)-4-(2-(1-methyl-1H-pyrazol-5-yl)-4-(trifluoromethyl)phenyl)-N-(6-methylpyridin-2-yl)chroman-7-sulfonamide] | 0.245 µM |  | 
31 | O=C(O)c1ccc(-c2cc(C(F)(F)F)ccc2[C@@H]2CCOc3cc(S(=O)(=O)Nc4ncccn4)ccc32)cc1 [Example-187, (S&R)-2′-(7-(N-(pyrimidin-2-yl)sulfamoyl)chroman-4-yl)-5′-(trifluoromethyl)-[1,1′-biphenyl]-4-carboxylic acid] | 2.6 µM |  | 
